Reference: patent US20220332720A1, “BICYCLIC AGONISTS OF STIMULATOR OF INTERFERON GENES STING” (The Scripps Research Institute, priority 2019, published 2022)

Tested on: THP-1 Lucia ISG cells
Assay: ISG-LUC activation assay (ISRE-luciferase assay)
Type: cell-based
Settings: Homo sapiens, THP1-Lucia ISG; THP-1 Lucia ISG reporter cells, 24 hours; score based upon potency and efficacy relative to reference compound; read-out: ISG-LUC activation assay score
Source text: We have established a robust platform for identifying non-nucleotide small molecule STING agonists. his has been established using a primary assay involving a human THP-1 cell line carrying an IRF-inducible reporter with 5 copies of the IFN signaling response element. Counter screens, involving alternative reporter constructs, rodent cell-based assays, as well as cGAS and STING knock-out cell lines, are used to eliminate luciferase artifacts and ensure human-rodent cross species reactivity, as well as pathway selectivity. Biochemical assays, involving cGAS enzymatic activity and STING protein binding assays, are used to identify the specific target of identified hits.
Tissue culture. Wild-type (cat. no. thpl-isg) and STING KO (cat. no. thpd-kostg) THP-1-Lucia ISG cells were purchased from Invivogen and maintained in growth media consisting of RPMI 1640, 2mM L-glutamine, […], 10% heat-inactivated fetal bovine serum (FBS), 1,000 units/ml penicillin, 1,000 μg/ml streptomycin, 0.25 μg/ml Amphotericin B, and 100 μg/ml zeocin unless otherwise stated.
ISRE-luciferase assay. THP-1 Lucia ISG cells were resuspended in low-serum growth media (2% FBS) at a density of 5×10^5 cells/ml and treated with test article or vehicle (DMSO). 50 μL of cells were seeded into each well of a 384-well white greiner plates and incubated for 24 hours. To evaluate expression of the luciferase reporter, 30 μl of Quanti-luc (Invivogen) detection reagent was added to each well and luminescence was read using an Envision plate reader (Perkin Elmer) set with an integration time of 0.1 seconds.

Row | EC50 [µM] | Structure (SMILES)
1 | > 20 | C#Cc1cc(NC(=O)c2ccn3c(S(C)(=O)=O)nnc3n2)c(C(=O)O)cc1F [Compound 62]
2 | > 20 | C#Cc1cc(NC(=O)c2ccn3c([S+](C)[O-])nnc3n2)c(C(=O)O)cc1F (stereo not drawn) [Compound 63]
3 | < 0.9 | C=Cc1ccc(C(=O)OC)c(NC(=O)c2cc(N)c3nnnn3n2)c1 [Compound 64]
4 | < 0.9 | COC(=O)c1cc(Cl)c(Cl)cc1NC(=O)c1nn2nnnc2cc1N [Compound 65]
5 | < 0.9 | C=C(F)c1ccc(C(=O)O)c(NC(=O)c2cc(N)c3nnnn3n2)c1 [Compound 66]
6 | < 0.9 | COC(=O)c1cc(F)c(OC)cc1NC(=O)c1cc(N)c2nnnn2n1 [Compound 67]
7 | < 0.9 | COC(=O)c1cc(F)c(F)cc1NC(=O)c1cc2[nH]cnc2cn1 [Compound 69]
8 | > 1 | C#Cc1cc(NC(=O)c2cc(NC(=O)OC(C)(C)C)c3nnnn3n2)c(C(=O)OC)cc1F [Compound 70]
9 | > 1 | COC(=O)c1cc(F)c(F)cc1NC(=O)c1ccc2nnnn2n1 [Compound 71]
10 | > 1 | COc1cc(NC(=O)c2cc(N)c3nnnn3n2)c(C(=O)O)cc1F [Compound 73]
11 | < 3 | Nc1cc2nnnn2nc1C(=O)Nc1cc(Cl)c(Cl)cc1C(=O)O [Compound 74]
12 | > 1 | COC(=O)c1cc(F)c(F)cc1NC(=O)c1ccn2c(C#N)cnc2n1 [Compound 75]
13 | > 1 | COC(=O)c1cc(F)c(F)cc1NC(=O)N1CCn2cncc2C1 [Compound 76]
14 | > 1 | COC(=O)c1cc(Cl)c(Cl)cc1NC(=O)c1nc2nc(O)ccn2n1 [Compound 77]
15 | > 1 | O=C(Nc1cc(F)c(F)cc1C(=O)O)c1cc2[nH]cnc2cn1 [Compound 78]
16 | > 1 | COC(=O)c1cc(F)c(OC)cc1NC(=O)c1cc(NC(=O)OC(C)(C)C)c2nnnn2n1 [Compound 79]
17 | > 1 | COC(=O)c1cc(F)c(F)cc1NC(=O)c1nc2cnccn2n1 [Compound 80]
18 | > 1 | COc1ccc(C(=O)O)c(NC(=O)c2cc(N)c3nnnn3n2)c1 [Compound 81]
19 | > 1 | Nc1cc(C(=O)Nc2cc(Cl)c(Cl)cc2C(=O)O)nn2nnnc12 [Compound 82]
20 | < 0.9 | Nc1cc(C(=O)Nc2cc(Cl)c(F)cc2C(=O)O)nn2nnnc12 [Compound 83]
21 | > 1 | COc1cc(NC(=O)c2cc(N)c3nnnn3n2)c(C(=O)O)cc1Cl [Compound 84]
22 | > 20 | COC(=O)c1cc(F)c(F)cc1NC(=O)c1cc2ncccn2n1 [Compound 85]
23 | > 1 | COc1cc(NC(=O)c2cc(NC(=O)OC(C)(C)C)c3nnnn3n2)c(C(=O)O)cc1F [Compound 86]
24 | > 20 | COc1cc(NC(=O)c2nc3ccc(C(N)=O)nc3[nH]2)c(C(=O)O)cc1F [Compound 87]
25 | > 20 | O=C(O)c1cc(Cl)c(Cl)cc1NC(=O)c1cccn2cnnc12 [Compound 88]
26 | > 1 | COC(=O)c1cc(Cl)c(Cl)cc1NC(=O)c1cccn2cnnc12 [Compound 89]
27 | > 1 | COC(=O)c1cc(Cl)c(Cl)cc1NC(=O)c1nc2n(n1)CCC(=O)N2 [Compound 91]

Row | Structure (SMILES) | EC50 [µM]
28 | COC(=O)c1cc(C#N)c(Cl)cc1NC(=O)c1cc2[nH]cnc2cn1 [Compound 68] | > 1
29 | COC(=O)c1cc(C#N)c(Cl)cc1NC(=O)c1cnc2nc[nH]c2c1 [Compound 72] | > 20
30 | COC(=O)c1cc(C#N)c(Cl)cc1NC(=O)c1cc2[nH]ncc2cn1 [Compound 90] | > 1
